Results taken from ChEMBL document CHEMBL5532668, “Pitfalls and Considerations in Determining the Potency and Mutant Selectivity of Covalent Epidermal Growth Factor Receptor Inhibitors” (J Med Chem, 2024).

Legend:
[1] = system: Epidermal growth factor receptor (Homo sapiens), P00533 [L858R,T790M]
[2] = system: Epidermal growth factor receptor (Homo sapiens), P00533 [L858R]
Homo sapiens = species: Homo sapiens; assay: Selectivity ratio, ratio of Ki for human wild type EGFR to Ki for EGFR L858R mutant (unknown origin)
[3] = system: Epidermal growth factor receptor (Homo sapiens), P00533 [L858R]; remark: listed apart in the source
[4] = target: Epidermal growth factor receptor (Homo sapiens, UniProt P00533, L858R); assay: Binding affinity to EGFR L858R mutant (unknown origin) assessed as apparent inhibition constant in presence of ATP by TR-FRET assay; details: read-out: Ki(app)
Chain of Epidermal growth factor receptor (P00533 25-1210 L858R limits assumed): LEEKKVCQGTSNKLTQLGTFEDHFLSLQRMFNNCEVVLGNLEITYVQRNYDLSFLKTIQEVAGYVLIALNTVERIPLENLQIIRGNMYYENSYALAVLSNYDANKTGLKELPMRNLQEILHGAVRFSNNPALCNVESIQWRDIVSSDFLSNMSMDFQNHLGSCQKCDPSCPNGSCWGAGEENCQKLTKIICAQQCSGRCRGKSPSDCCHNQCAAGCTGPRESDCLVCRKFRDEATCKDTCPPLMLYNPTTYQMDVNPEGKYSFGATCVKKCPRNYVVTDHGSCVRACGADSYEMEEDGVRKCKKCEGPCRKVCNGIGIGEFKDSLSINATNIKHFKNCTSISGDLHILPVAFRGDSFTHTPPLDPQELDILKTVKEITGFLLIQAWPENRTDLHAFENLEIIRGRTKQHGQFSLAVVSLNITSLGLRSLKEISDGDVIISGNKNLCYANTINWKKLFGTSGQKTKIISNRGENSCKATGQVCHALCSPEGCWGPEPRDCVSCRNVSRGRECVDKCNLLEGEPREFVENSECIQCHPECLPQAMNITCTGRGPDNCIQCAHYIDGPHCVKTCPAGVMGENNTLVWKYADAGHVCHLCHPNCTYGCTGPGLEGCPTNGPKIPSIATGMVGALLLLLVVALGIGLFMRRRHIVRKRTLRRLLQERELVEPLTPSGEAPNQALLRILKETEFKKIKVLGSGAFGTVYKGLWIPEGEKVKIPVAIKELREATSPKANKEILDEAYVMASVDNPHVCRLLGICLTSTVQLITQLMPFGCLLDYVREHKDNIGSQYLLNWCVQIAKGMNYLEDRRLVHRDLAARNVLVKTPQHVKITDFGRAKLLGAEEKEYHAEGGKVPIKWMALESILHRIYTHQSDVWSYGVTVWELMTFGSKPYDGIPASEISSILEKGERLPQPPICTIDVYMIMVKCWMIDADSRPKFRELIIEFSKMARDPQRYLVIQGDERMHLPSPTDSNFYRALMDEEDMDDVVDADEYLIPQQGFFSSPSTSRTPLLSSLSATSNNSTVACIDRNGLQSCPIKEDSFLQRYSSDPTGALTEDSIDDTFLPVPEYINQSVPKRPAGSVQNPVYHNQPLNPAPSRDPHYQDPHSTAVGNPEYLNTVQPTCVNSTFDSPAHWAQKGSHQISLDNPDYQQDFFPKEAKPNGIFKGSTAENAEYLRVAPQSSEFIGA

Chain of Epidermal growth factor receptor (Homo sapiens), P00533 [L858R] (P00533 whole entry L858R): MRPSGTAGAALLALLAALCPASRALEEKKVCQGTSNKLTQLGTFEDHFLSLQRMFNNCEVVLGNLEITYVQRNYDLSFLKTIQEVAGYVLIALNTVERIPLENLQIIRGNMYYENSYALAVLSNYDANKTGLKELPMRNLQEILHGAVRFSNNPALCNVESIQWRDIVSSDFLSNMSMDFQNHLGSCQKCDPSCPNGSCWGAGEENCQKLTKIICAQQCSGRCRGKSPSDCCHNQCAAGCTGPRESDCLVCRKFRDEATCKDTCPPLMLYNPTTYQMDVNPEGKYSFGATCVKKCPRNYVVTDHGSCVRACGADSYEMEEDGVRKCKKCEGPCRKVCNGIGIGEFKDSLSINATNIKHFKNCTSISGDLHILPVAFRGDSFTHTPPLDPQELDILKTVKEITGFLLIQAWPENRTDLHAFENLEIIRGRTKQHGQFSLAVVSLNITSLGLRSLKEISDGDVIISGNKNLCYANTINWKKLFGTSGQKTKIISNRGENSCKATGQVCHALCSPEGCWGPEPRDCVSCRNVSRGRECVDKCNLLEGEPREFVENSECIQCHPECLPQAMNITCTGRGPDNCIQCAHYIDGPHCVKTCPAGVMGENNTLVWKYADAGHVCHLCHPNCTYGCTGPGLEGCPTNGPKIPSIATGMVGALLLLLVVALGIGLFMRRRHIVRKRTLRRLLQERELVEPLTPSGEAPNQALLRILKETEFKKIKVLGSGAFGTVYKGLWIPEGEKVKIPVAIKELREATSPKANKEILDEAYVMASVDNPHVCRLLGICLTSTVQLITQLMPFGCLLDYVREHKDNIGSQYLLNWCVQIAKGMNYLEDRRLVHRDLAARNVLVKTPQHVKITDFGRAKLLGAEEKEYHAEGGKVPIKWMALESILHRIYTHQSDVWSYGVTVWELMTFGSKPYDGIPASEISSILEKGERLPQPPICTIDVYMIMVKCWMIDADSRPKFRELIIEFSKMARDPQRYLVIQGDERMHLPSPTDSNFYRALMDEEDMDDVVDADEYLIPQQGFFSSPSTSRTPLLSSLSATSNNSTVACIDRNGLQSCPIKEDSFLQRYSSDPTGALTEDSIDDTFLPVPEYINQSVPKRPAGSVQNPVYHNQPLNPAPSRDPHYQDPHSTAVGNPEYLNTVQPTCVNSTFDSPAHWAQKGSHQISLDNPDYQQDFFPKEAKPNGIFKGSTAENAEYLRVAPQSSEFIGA
Chain of Epidermal growth factor receptor (Homo sapiens), P00533 [L858R,T790M] (P00533 whole entry T790M/L858R, looked up): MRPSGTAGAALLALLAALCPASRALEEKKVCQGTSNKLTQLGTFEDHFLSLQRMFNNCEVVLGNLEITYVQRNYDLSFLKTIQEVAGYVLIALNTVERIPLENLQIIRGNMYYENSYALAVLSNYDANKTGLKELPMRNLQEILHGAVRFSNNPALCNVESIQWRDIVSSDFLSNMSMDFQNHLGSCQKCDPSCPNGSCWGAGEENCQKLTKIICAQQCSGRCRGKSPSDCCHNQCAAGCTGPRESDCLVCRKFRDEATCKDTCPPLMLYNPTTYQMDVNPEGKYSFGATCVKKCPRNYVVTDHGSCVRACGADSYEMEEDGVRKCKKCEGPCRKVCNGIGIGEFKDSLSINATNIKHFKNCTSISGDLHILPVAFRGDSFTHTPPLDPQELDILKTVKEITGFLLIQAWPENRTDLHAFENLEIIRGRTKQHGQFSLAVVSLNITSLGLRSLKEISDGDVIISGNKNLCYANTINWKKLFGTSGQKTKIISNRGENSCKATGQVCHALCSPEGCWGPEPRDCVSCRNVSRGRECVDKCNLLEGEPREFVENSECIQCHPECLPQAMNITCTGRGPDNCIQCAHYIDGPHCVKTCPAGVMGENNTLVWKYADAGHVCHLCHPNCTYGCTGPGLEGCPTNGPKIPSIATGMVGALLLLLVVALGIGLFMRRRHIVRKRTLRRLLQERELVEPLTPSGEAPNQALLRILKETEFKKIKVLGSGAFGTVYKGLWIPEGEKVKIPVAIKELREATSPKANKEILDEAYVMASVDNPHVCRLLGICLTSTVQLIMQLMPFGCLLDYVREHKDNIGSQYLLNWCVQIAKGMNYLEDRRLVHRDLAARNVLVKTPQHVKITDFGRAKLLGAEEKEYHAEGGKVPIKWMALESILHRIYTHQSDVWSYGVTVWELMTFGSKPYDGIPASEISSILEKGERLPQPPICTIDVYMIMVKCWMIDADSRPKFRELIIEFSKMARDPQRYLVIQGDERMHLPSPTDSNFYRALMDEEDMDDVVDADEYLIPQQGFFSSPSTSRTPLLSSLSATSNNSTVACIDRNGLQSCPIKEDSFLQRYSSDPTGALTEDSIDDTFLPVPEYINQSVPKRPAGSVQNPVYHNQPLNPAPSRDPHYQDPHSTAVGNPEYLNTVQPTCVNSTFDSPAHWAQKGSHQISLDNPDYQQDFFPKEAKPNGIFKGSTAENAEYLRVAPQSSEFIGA

C=CC(=O)Nc1cc(Nc2nccc(-n3cc(CN(C)C)c(-c4ccccc4)n3)n2)c(OC)cc1N1CCOCC1 [LAZERTINIB]
Kinact [1]: 3.92 10^-3/s | Kinact [2]: 0.00971 s⁻¹ | Ratio Ki (Homo sapiens): 0.358 | Kinact [3]: 5.88 10^-3/s | Ki [4]: 4.68 nM
